Measurements published in patent US20190255146A1, “POLYPEPTIDES FOR IMPROVED RESPONSE TO ANTI-CANCER THERAPY” (MUSC FOUNDATION FOR RESEARCH DEVELOPMENT, priority 2016, published 2019).
One block for each molecule: values may come before it.

How the values were obtained:
[1] = tested on: UM-SCC-47-derived xenograft tumors; assay: HPV(+) UM-SCC-47-derived xenograft tumor growth in SCID mice; type: in vivo; settings: HPV(+) UM-SCC-47 xenografts, cisplatin 3.5 mg/kg for two weeks, tumor volumes days 0 and 14
Description: (§1) To determine whether HPV(+) compared to HPV(−) HNSCC cells are more sensitive to stress-mediated growth inhibition in response to chemotherapeutic drugs, it was first established HPV(+) UM-SCC-47- and HPV(−) UM-SCC-22A-derived xenograft tumors in SCID mice. After the xenograft-derived tumors were ˜75-100 mm^3, the mice were treated with cisplatin (3.5 mg/kg) for two weeks, which is below its maximum tolerated doses (van Moorsel et al, 1999). Then, tumor volumes were measured at days 0 and 14 of treatment. […] After tumor growth measurements in the mice were taken, the tumors were surgically removed and the effects of cisplatin on CerS1-6 mRNA were measured by qRT-PCR.
(§2) In vivo studies. […] Age- and sex-matched mice were used. […] Tumor volume was measured using calipers.

[2] = tested on: LC3B; assay: LC3B lipidation by Western blotting in UM-SCC-47 cell extracts; type: cell-based; settings: UM-SCC-47 cells, versus vehicle
Description: FIGS. 12A-C. Knockdown of autophagy inducer LC3 inhibits cisplatin-mediated cell death in HPV(+) HNSCC cells. (A) Induction of autophagy in response to cisplatin was assessed by detection of LC3B lipidation using Western blotting in HPV(+) UM-SCC-47 cell extracts with anti-LC3B antibody compared to vehicle (veh) treated controls. Actin was used as a loading control. […] Samples shown are from the same representative blot but not in contiguous lanes. (B-C) Effects of siRNA-mediated knockdown of LC3B on cisplatin-mediated cell death were measured and IC50 concentrations were calculated by MTT assays compared to Scr-siRNA-transfected controls. […] Si-RNA-mediated knockdown of LC3B was confirmed using Western blotting with anti-LC3B antibody compared to Scr-siRNA-transfected controls (C). Actin was used as a loading control.
(§3) Immunoblotting. Cells were lysed in RIPA buffer plus protease inhibitor cocktail on ice for 15 minutes then centrifuged. 30ug of protein from the supernatant were run on Criterion™ TGX™ Precast Gels (Bio-Rad).

[3] = tested on: Drp1; assay: Drp1 oligomerization by Western blotting without reducing agents; type: cell-based; settings: HPV(+) UM-SCC47 cells
Description: FIGS. 7A-F. E2F5/Drp1 complex enhances HPV-E7/ceramide-dependent lethal mitophagy. (A) UM-SCC47 cells were treated with cisplatin or C18-pyr-cer and Western blotting was performed with cell lysates in the absence of reducing agents in the lysing buffer to detect monomeric and dimeric Drp1 protein abundance compared to vehicle-treated controls. Actin was used as a loading control. (B-C) Cell death was assessed by trypan blue exclusion assay in UM-SCC47 cells expressing dominant-negative Drp1 mutant (K38A-DRP1) and treated with C18-pyr-cer (B) or cisplatin (C) compared to vector-transfected controls. […] (D-E) Association between E2F5 and Drp1 in response to ceramide stress (C18-pyr-cer) was measured in UM-SCC-47 cells using PLA (D) or immunoprecipitation followed by Western blotting (E) with anti-Drp1 or anti-E2F5 antibodies. IgG was used as a control. […] PLA signals were quantified as described by the manufacturer using the PLA quantification software. […] Effects of siRNA-mediated HPV-E6/E7 knockdown on pRB, HPV-E7 and p53 protein abundance were also confirmed by Western blotting compared to Scr-siRNA-transfected controls in the absence/presence of C18-pyr-cer (right panel). Total RB was used a loading control (Rb band, upper panel).
Immunoblotting. Cells were lysed in RIPA buffer plus protease inhibitor cocktail on ice for 15 minutes then centrifuged. […]

[4] = tested on: UM-SCC-22A-derived xenograft tumors; assay: HPV(−) UM-SCC-22A-derived xenograft tumor growth in SCID mice; type: in vivo
Description: as §1
Eight arginine residues (R8) were included on the N-terminus to enhance cell penetration of the E2F5 peptide (Rancher and Ryu, 2015).
In vivo studies. Severe combined immunodeficient (SCID) mice were purchased from Jackson Laboratories. Age- and sex-matched mice were used. All animal protocols were approved by the Institutional Animal Care and Use Committee at the Medical University of South Carolina. UM-SCC22A or UM-SCC47 cells (75,000) were implanted into the flanks of SCID mice (n=5-8 mice). When the tumors were palpable, the mice were treated every three days with 3.5 mg/kg cisplatin, 20 mg/kg C18-pyr-cer, or corresponding amount of vehicle control and/or 3.76 μg E2F5-peptide or scrambled control peptide. Tumor volume was measured using calipers. At the end of the 14-day treatment, the mice were euthanized and tumor tissues were collected (Sentelle et al, 2007; Saddoughi et al, 2013).

[5] = tested on: UM-SCC-47 cells; assay: Growth inhibition in culture, IC50 determination by MTT assay; type: cell-based
Description: (§4) IC50 determination by MTT assay. Cells were plated in 96-well plates and allowed to adhere for 20 h, then treated with the indicated concentrations of drug. After 48 h treatment, the MTT assay (ATCC) was performed as described previously (Sentelle et al, 2012).

[6] = tested on: UM-SCC-22A cells; assay: as above; type: cell-based; settings: UM-SCC-22A (HPV−) cells, 48 h; read-out: IC50 (concentration that inhibited growth by 50%)
Description: as §4

[7] = tested on: CerS1; assay: CerS1 localization, Western blotting of cytoplasm versus mitochondria enriched fractions of UM-SCC-47 cells; type: cell-based; settings: cisplatin 1 and 4 h versus 0 h
Description: FIGS. 2A-G. HPV-E6 enhances chemotherapy-mediated cellular stress and CerS1/ceramide-mediated lethal mitophagy. (A-B) Effects of siRNA-mediated knockdown of HPV-E6/E7 on HPV(+) UM-SCC-47 cell death was assessed by MTT compared to Scr-siRNA-transfected and/or vehicle-treated controls. Successful knockdown of HPV-E6/E7 proteins were confirmed by Western blot analysis (B). […] (C) Effects of ectopic expression of HPV-E6 versus E7 on HPV(−) UM-SCC-22A cell death were measured by MTT. HPV-E6/E7 protein abundance was measured by Western blotting. […] (D) Effects of shRNA-mediated knockdown of CerS1 on mitophagy in response to cisplatin were measured by live cell imaging confocal micrographs of UM-SCC-47 cells stained with LTG and MTR. Scr-shRNA-transfected and/or vehicle-treated cells were used as controls. […] Images were quantified using ImageJ. (E) Cytoplasmic versus mitochondrial localization of CerS1 in the presence/absence of cisplatin at 0, 1, and 4 h was measured by Western blotting using anti-CerS1 antibody in cytoplasm (cyto)—versus mitochondria (mito)-enriched cellular fractions of UM-SCC-47 cells. Actin and Tom 20 were used as controls for cytoplasm- and mitochondria-enriched fractions, respectively. […] (F-G) Effects of shRNA-mediated knockdown of CerS6, confirmed by Western blotting (F), on UM-SCC-47 cell death in response to cisplatin were measured by trypan blue exclusion assay (G). […]

[8] = tested on: CerS1-6 mRNA; assay: CerS1-6 mRNA by qRT-PCR in HPV(+) UM-SCC-47 xenograft-derived tumors; type: in vivo, mice; settings: day 14 versus day 0
Description: as §1
Quantitative RT-PCR. RNA was extracted from cell pellets using RNeasy kit (Qiagen) per the manufacturer's instructions. cDNA was generated using equal amounts of RNA from each sample and iScript cDNA synthesis kit (Bio-Rad) per manufacturer's instructions. Reactions were carried out using SsoFast probes mix (Bio-Rad) and TaqMan primer probes (ThermoFisher Scientific) in a StepOne Plus qPCR cycler as described by the manufacturer.
as §2

[9] = target: T1, Drp1 (Homo sapiens, UniProt O00429); assay: Drp1 recruitment to mitochondria in HPV(−) UM-SCC-22A cells (Western blotting of mitochondria-enriched fractions); type: cell-based; settings: 5 uM peptide, 20 uM C18-pyr-cer, 1.5 hours
T1 construct: Western blotting using whole cell (UM-SCC-22A) lysates versus mitochondria-enriched fractions; endogenous in cells; host or cells: UM-SCC-22A
T1 sequence (O00429 whole entry): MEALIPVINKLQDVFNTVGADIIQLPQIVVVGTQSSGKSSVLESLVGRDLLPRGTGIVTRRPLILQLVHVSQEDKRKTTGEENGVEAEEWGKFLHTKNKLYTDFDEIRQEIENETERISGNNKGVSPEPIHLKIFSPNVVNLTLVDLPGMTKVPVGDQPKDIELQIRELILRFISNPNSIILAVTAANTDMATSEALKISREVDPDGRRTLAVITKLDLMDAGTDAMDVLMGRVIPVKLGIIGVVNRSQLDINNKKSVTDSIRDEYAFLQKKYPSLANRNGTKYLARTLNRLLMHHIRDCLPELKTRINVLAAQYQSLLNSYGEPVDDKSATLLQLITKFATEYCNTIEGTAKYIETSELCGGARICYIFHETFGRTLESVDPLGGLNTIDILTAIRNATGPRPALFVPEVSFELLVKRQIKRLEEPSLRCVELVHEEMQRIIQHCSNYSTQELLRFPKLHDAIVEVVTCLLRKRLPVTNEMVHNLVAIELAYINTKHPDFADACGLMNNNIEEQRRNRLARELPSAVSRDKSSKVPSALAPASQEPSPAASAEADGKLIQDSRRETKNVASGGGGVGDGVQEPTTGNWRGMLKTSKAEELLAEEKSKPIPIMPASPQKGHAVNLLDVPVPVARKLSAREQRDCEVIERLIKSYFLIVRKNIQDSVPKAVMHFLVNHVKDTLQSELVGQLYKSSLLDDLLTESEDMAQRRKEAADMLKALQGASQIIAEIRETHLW
Description: Images were quantified using FIJI.
as §3
Cell fractionation. Cells were treated with 40 uM cisplatin or vehicle for eight hours, 20 uM C18-pyr-cer or vehicle and/or 5 uM scr-pept or E2F5-pept for 1.5 hours. Mitochondria isolation kit (ThermoFisher Scientific) was used as described by the manufacturer.

[10] = target: T2, retinoblastoma protein (RB) (UniProt P06400 2-928, limits assumed); assay: PLA with anti-GFP and anti-RB antibodies, UM-SCC-22A cells
T2 construct: whole, on cells; Endogenous intracellular protein, detected with anti-RB antibody; also called pRB
T2 sequence (looked up): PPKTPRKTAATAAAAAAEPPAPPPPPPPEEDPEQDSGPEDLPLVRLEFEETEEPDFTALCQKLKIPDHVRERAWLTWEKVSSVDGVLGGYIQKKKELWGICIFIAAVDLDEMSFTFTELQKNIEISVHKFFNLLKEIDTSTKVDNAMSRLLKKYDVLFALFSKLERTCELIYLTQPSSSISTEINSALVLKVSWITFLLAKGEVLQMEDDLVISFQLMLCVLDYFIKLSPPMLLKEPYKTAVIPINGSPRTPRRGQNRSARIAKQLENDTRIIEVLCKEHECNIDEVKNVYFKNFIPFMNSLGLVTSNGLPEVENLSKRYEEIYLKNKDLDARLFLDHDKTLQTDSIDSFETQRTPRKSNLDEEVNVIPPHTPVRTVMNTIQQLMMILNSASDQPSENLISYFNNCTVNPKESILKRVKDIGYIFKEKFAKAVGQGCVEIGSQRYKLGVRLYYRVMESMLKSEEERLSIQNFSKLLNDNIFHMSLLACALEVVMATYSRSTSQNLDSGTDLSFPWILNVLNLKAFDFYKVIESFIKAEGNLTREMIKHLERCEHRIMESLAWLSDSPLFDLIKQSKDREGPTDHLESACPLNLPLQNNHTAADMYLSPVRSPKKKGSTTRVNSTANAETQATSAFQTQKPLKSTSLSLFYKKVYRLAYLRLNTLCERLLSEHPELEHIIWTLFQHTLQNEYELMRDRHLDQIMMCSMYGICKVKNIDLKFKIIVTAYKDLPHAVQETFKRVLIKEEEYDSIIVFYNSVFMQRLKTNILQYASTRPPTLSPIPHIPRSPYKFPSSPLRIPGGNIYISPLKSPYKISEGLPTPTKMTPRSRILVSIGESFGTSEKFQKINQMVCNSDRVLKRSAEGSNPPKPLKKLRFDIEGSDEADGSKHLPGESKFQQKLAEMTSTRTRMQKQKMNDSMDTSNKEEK
From the text: PLA images were quantified using the PLA software as described by the manufacturer. […] Vector-GFP was used as a control (right panel, C).

Molecule: N.N.[Cl][Pt][Cl] [cisplatin]
inhibition of growth of xenografts in response to cisplatin [1]: ~75% | LC3B lipidation (marker of autophagy induction) [2]: Increased LC3B lipidation | Drp1 oligomerization and/or activation [3]: Drp1 oligomerization and/or activation was observed | tumor suppression of xenografts ([4]; HPV(−) UM-SCC-22A xenografts, cisplatin 3.5 mg/kg for two weeks): no detectable tumor suppression | IC50 ([5]; UM-SCC-47 (HPV+) cells, 48 h, read-out: IC50 (concentration that inhibited growth by 50%)): 8 µM | reduction of cisplatin-mediated growth inhibition by knockdown of CerS1 ([5]; UM-SCC-47 cells, CerS1 shRNA versus Scr-shRNA, MTT): ~4 fold | resistance to cisplatin-mediated growth inhibition upon knockdown of E6 and E7 ([5]; UM-SCC-47 cells, HPV-E6/E7 siRNA versus Scr-siRNA, MTT): ~8 fold | sensitivity for drug-induced growth inhibition/cell death, UM-SCC-47 compared to UM-SCC-22A cells ([5]; cells in culture): ~3 fold | IC50 [6]: 28 µM | accumulation of CerS1 in mitochondria [7]: increased accumulation of CerS1 in mitochondria | CerS1 and CerS6 mRNA in tumors [8]: induced CerS1 and CerS6 mRNA

Molecule: Biotin-RRRRRRRR-LILFVIKLHQDVNDMRNSNQDQTQSEDRESKWY [scr-pept]
ceramide-induced Drp1 recruitment to mitochondria [9]: not | tumor growth ([4]; UM-SCC-22A xenografts, 3.76 μg peptide, absence/presence of cisplatin 3.5 mg/kg every 3 days for 2 weeks): no effect

binding result [10]: binds
B1: dimerization domain deleted mutant of E2F5, GFP-tagged (E2F5^Δ84-177-GFP) (other)
chain: MAAAEPASSGQQAPAGQGQGQRPPPQPPQAQAPQPPPPPQLGGAGGGSSRHEKSLGLLTTKFVSLLQEAKDGVLDLKAAADTLICNCFNGDTLLAIQAPSGTQLEVPIPEMGQNGQKKYQINLKSHSGPIHVLLINKESSSSKPVVFPVPPPDDLTQPSSQSLTPVTPQKSSMATQNLPEQHVSERSQALQQTSATDISSAGSISGDIIDELMSSDVFPLLRLSPTPADDYNFNLDDNEGVCDLFDVQILNY
notes: Ectopically expressed in cells; not shown: GFP tag
